Patent US20090163525A1, “SUBSTITUTED QUINAZOLINES WITH ANTI-CANCER ACTIVITY” (ASTRAZENECA AB, priority 2006, published 2009)

Target: Mutant B-Raf (V600E) enzyme (MT B-Raf) (Homo sapiens, UniProt P15056, V600E)
Assay: B-Raf in vitro AlphaScreen assay
Type: biochemical
Conditions: phosphorylation of biotinylated HIS-MEK-AVI, 24 μM ATP in mix
Method: B-Raf In-vitro AlphaScreen Assay
MT B-Raf was expressed in insect cells and affinity purified by Ni^+2 agarose followed by Q-Sepharose chromatography. Typical yield was 1.08 mg/ml at >90% purity.
The phosphorylation of the MT B-Raf substrate in the presence and absence of the compound of interest was determined. Briefly, 5 μl of enzyme/substrate/adenosine triphosphate (ATP) mix consisting of 0.12 nM MT B-Raf, 84 nM biotinylated HIS-MEK-AVI, and 24 μM ATP in 1.2× buffer was preincubated with 2 μl of compound for 20 minutes at 25° C. Reactions were initiated with 5 μl of Metal mix consisting of 24 mM MgCl2 in 1.2× buffer and incubated at 25° C. for 60 minutes and reactions were stopped by addition of 5 μl of Detection mix consisting of 20 mM HEPES, 102 mM ethylenediamine tetraacetic acid, 1.65 mg/ml BSA, 136 mM NaCl, 3.4 nM Phospho-MEK1/2 (Ser217/221) antibody (Catalog #9121, Cell Signaling Technology, Mass.), 40 μg/ml Streptavidin donor beads (Perkin Elmer, Mass., Catalog #6760002), and 40 μg/ml Protein A acceptor beads (Perkin Elmer, Mass., Catalog #6760137). Plates were incubated at 25° C. for 18 hours in the dark. Phosphorylated substrate was detected by an EnVision plate reader (Perkin Elmer, Mass.) 680 nm excitation, 520-620 nm emission. Data was graphed and IC50s calculated using Excel Fit (Microsoft).

Sequence of Mutant B-Raf (V600E) enzyme (MT B-Raf) (P15056 whole entry V600E): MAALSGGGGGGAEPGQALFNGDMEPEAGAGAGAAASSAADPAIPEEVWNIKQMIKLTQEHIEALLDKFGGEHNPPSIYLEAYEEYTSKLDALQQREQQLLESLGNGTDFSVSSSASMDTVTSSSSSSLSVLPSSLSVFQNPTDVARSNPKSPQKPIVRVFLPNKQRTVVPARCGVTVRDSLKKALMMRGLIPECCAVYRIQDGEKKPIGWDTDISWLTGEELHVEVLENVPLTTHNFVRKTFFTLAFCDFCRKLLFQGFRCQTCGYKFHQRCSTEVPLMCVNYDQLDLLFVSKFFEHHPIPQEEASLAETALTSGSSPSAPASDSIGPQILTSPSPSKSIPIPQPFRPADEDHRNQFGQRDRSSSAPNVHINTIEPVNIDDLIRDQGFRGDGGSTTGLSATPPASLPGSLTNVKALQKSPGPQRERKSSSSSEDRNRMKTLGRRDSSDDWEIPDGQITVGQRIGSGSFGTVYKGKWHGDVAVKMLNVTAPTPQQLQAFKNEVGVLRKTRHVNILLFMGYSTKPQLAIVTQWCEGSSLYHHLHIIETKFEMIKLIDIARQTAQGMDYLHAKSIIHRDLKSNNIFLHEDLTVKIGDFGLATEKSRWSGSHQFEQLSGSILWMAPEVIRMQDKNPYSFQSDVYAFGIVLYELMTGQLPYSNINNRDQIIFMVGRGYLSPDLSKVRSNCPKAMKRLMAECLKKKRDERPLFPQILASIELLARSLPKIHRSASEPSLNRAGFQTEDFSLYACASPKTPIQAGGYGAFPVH

| IC50 [nM] | SMILES |
| --- | --- |
| 363 | Cc1ccc(NC(=O)Nc2ccc(Cl)c(Cl)c2)cc1Nc1ccc2ncn(C)c(=O)c2c1 [Example 2, N-(3,4-Dichlorophenyl)-N′-{4-methyl-3-[(3-methyl-4-oxo-3,4-dihydroquinazolin-6-yl)amino]phenyl}urea] |
| 99 | Cc1ccc(NC(=O)Nc2cccc(C(C)(C)C#N)c2)cc1Nc1ccc2ncn(C)c(=O)c2c1 [Example 6, N-[3-(1-Cyano-1-methylethyl)phenyl]-N′-{4-methyl-3-[(3-methyl-4-oxo-3,4-dihydroquinazolin-6-yl)amino]phenyl}urea] |

| SMILES | IC50 [nM] |
| --- | --- |
| Cc1ccc(NC(=O)Nc2cccc(C(F)(F)F)c2)cc1Nc1ccc2ncn(C)c(=O)c2c1 [Example 1, N-{4-Methyl-3-[(3-methyl-4-oxo-3,4-dihydroquinazolin-6-yl)amino]phenyl}-N-′[3-(trifluoromethyl)phenyl]urea] | 14.3 |
